Consider two molecules from ChEMBL document CHEMBL5696441 (Nat Chem Biol, 2011).

For experiment [1], the target named is T1, cGMP-dependent protein kinase 2 (Homo sapiens) (UniProt Q13237).
T1 sequence (whole entry): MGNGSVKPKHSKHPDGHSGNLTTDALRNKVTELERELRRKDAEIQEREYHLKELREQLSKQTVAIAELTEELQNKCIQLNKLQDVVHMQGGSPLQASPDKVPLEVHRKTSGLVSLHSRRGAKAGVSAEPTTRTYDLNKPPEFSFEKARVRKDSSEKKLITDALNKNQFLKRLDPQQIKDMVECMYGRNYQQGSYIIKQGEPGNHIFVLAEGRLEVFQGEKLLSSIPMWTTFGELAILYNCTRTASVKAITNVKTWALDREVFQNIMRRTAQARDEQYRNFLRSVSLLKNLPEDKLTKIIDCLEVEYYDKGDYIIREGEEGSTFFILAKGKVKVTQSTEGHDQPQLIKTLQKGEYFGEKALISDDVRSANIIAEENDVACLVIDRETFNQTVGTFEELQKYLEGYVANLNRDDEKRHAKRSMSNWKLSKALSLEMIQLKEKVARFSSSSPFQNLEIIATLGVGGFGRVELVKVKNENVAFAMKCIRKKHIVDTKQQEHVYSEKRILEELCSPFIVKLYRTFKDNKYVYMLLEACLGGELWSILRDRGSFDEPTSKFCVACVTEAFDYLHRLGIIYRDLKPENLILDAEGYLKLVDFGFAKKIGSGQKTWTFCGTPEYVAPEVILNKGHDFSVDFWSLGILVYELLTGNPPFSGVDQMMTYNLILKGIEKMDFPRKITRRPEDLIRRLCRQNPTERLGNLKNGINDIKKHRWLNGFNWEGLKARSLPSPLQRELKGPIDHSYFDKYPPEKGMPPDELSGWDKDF
Put plainly: Inhibition of PRKG2 (unknown origin) assessed as remaining activity at 1 uM by Kinome scan method relative to control.

In experiment [2] the target is T2, Serine/threonine-protein kinase TAO3 (Homo sapiens) (UniProt Q9H2K8).
T2 sequence (whole entry): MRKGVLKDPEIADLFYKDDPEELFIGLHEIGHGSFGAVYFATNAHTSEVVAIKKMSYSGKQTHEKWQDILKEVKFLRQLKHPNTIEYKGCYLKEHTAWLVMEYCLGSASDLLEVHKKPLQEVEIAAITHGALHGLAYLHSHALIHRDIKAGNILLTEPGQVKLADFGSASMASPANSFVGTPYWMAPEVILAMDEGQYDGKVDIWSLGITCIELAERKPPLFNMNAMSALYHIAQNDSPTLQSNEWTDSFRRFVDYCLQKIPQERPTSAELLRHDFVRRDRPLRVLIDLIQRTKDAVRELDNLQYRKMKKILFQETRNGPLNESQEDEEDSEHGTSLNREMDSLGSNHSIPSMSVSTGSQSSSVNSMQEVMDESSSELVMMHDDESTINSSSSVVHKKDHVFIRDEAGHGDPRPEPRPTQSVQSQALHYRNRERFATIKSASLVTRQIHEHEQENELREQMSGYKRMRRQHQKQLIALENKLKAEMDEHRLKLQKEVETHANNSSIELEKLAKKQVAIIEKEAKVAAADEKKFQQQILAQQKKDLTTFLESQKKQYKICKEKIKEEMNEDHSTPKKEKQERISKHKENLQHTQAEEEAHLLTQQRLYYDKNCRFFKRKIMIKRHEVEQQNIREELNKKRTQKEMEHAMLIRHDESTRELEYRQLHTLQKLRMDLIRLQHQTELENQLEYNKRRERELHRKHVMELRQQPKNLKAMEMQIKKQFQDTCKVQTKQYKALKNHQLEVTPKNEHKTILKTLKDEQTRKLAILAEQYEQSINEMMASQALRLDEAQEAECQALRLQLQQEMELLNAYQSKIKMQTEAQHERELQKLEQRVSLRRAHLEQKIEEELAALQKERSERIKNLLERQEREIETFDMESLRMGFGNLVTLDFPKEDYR
In words: Inhibition of TAOK3 (unknown origin) assessed as remaining activity at 1 uM by Kinome scan method relative to control.

In experiment [3] the target is BMP-2-inducible protein kinase (Homo sapiens) (UniProt Q9NSY1). In words: Inhibition of BIKE (unknown origin) assessed as remaining activity at 1 uM by Kinome scan method relative to control.
Chain of BMP-2-inducible protein kinase (Homo sapiens) (Q9NSY1 whole entry, looked up): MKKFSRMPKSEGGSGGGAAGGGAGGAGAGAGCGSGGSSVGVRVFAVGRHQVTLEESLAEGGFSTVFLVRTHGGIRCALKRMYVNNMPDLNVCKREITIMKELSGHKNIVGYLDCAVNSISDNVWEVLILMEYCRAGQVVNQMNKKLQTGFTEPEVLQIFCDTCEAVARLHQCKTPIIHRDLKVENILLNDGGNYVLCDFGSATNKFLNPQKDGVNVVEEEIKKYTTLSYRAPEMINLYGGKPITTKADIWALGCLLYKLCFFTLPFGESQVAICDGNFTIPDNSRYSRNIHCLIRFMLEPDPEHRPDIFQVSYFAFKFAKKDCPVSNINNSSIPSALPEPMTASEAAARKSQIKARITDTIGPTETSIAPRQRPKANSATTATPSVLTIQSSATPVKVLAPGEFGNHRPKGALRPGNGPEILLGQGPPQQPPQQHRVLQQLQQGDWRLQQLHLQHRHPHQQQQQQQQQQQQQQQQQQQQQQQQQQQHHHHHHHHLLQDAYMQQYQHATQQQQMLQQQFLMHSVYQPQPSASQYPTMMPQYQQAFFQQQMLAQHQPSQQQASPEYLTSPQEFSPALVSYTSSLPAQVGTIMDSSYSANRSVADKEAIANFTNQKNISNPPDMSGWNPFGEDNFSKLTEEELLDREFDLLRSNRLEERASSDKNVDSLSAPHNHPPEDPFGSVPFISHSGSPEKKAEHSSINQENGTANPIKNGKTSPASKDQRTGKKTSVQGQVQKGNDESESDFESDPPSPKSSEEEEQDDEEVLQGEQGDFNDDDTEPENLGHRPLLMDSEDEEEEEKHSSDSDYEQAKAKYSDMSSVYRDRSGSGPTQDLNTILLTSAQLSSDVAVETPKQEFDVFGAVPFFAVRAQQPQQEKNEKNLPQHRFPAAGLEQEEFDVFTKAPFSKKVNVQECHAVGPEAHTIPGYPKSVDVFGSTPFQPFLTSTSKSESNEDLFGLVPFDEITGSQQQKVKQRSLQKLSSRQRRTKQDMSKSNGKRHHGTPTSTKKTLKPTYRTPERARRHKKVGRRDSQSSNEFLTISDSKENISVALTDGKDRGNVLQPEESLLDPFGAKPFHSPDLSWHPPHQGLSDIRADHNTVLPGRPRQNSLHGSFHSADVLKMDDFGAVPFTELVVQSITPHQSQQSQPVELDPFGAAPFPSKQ
Experiment [4] has as its target Mitogen-activated protein kinase kinase kinase 20 (Homo sapiens) (UniProt Q9NYL2). Put plainly: Inhibition of ZAK (unknown origin) assessed as remaining activity at 1 uM by Kinome scan method relative to control.
Experiment [5] deals with MAP/microtubule affinity-regulating kinase 3 (Homo sapiens) (UniProt P27448). In words: Inhibition of MARK3 (unknown origin) assessed as remaining activity at 1 uM by Kinome scan method relative to control.
Chain of MAP/microtubule affinity-regulating kinase 3 (Homo sapiens) (P27448 whole entry, looked up): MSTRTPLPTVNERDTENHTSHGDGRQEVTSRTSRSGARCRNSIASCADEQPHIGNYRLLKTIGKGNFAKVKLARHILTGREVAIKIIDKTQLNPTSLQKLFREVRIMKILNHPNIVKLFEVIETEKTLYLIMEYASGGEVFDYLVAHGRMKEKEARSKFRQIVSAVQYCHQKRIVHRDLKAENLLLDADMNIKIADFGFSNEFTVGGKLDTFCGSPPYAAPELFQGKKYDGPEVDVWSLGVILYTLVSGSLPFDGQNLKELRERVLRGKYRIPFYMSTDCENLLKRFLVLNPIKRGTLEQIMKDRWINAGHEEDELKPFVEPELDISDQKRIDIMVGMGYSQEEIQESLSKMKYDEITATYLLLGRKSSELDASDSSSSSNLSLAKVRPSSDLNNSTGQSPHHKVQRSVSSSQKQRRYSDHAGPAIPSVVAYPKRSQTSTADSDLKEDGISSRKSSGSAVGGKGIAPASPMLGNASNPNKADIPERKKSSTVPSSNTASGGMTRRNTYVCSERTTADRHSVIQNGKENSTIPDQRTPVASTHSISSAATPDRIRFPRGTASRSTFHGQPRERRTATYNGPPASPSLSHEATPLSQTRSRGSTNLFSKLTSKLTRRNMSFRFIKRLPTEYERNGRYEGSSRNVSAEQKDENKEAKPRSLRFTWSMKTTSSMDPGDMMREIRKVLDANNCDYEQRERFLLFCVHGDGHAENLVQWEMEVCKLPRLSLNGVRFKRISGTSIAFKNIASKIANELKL
The target in experiment [6] is Homeodomain-interacting protein kinase 3 (Homo sapiens) (UniProt Q9H422). Put plainly: Inhibition of HIPK3 (unknown origin) assessed as remaining activity at 1 uM by Kinome scan method relative to control.
Chain of Homeodomain-interacting protein kinase 3 (Homo sapiens) (Q9H422 whole entry, looked up): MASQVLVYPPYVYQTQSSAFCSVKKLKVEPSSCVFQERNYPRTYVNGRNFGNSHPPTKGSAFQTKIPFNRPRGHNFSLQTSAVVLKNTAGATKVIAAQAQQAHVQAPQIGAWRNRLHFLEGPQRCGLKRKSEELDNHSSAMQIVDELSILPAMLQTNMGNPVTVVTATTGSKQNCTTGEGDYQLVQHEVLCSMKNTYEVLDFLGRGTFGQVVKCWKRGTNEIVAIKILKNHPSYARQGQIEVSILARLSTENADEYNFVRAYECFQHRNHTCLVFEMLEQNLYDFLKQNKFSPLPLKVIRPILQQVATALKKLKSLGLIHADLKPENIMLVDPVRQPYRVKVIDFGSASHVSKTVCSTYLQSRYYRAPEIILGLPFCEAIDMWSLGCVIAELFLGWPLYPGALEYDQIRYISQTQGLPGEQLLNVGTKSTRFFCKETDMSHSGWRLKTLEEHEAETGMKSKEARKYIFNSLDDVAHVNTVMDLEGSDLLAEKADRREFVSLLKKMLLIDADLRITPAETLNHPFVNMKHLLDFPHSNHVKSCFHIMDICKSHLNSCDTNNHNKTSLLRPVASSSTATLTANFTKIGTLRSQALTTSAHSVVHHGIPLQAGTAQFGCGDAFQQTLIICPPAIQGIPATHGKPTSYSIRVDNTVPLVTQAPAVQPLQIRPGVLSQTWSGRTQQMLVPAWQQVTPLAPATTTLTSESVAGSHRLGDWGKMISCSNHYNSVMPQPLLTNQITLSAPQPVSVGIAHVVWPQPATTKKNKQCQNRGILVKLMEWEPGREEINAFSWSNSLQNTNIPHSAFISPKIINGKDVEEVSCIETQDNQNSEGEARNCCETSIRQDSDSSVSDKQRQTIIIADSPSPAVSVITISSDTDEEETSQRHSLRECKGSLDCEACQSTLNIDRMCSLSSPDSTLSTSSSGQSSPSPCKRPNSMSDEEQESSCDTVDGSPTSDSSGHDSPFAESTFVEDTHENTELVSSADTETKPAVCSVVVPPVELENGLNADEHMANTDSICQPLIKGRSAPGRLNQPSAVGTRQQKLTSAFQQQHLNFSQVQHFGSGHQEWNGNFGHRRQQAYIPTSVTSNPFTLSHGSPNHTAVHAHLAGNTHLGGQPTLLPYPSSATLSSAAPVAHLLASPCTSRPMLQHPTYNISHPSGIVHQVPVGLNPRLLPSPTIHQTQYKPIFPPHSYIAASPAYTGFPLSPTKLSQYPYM
Experiment [7] relates to Tyrosine-protein kinase ABL1 (Homo sapiens), P00519 [T315I]. In words: Inhibition of ABL1 T315I mutant (unknown origin) assessed as remaining activity at 1 uM by Kinome scan method relative to control.
For experiment [8], the target named is Phosphorylase b kinase gamma catalytic chain, skeletal muscle/heart isoform (Homo sapiens) (UniProt Q16816). Put plainly: Inhibition of PHKG1 (unknown origin) assessed as remaining activity at 1 uM by Kinome scan method relative to control.
Chain of Phosphorylase b kinase gamma catalytic chain, skeletal muscle/heart isoform (Homo sapiens) (Q16816 whole entry, looked up, canonical isoform): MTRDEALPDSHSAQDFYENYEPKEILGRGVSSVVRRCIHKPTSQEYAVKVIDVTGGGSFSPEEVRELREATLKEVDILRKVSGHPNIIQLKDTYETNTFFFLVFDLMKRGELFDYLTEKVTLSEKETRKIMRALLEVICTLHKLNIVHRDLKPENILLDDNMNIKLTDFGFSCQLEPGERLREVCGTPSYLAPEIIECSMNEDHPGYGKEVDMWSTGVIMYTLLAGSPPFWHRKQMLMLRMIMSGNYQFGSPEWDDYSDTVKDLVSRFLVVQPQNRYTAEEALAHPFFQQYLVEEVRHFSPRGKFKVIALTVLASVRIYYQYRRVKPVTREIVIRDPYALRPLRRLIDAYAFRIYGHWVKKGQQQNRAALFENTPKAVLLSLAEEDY
Experiment [9] addresses Serine/threonine-protein kinase tousled-like 2 (Homo sapiens) (UniProt Q86UE8). In words: Inhibition of TLK2 (unknown origin) assessed as remaining activity at 1 uM by Kinome scan method relative to control.
The target in experiment [10] is Mitogen-activated protein kinase kinase kinase 15 (Homo sapiens) (UniProt Q6ZN16). Put plainly: Inhibition of MAP3K15 (unknown origin) assessed as remaining activity at 1 uM by Kinome scan method relative to control.

Chain of Serine/threonine-protein kinase tousled-like 2 (Homo sapiens) (Q86UE8 whole entry, looked up): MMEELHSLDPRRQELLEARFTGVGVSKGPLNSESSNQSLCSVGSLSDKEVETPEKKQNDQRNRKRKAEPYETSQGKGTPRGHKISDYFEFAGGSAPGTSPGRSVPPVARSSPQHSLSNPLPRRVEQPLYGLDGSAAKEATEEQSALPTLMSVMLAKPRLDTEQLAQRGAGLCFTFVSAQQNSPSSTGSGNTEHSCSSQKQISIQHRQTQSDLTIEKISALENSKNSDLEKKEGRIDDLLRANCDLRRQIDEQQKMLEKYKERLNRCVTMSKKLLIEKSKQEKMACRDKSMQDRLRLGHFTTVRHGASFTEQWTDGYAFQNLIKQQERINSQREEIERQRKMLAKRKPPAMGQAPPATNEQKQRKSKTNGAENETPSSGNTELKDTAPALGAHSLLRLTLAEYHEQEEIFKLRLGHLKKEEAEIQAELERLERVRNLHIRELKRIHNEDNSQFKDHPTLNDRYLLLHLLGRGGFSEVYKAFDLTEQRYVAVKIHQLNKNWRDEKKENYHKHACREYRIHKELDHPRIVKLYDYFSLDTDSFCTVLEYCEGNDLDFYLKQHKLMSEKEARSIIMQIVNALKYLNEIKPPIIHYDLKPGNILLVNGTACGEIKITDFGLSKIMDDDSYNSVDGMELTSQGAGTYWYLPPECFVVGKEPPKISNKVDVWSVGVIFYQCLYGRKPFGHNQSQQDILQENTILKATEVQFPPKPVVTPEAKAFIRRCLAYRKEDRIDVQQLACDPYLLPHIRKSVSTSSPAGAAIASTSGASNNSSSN
Chain of Mitogen-activated protein kinase kinase kinase 20 (Homo sapiens) (Q9NYL2 2-800 limits assumed): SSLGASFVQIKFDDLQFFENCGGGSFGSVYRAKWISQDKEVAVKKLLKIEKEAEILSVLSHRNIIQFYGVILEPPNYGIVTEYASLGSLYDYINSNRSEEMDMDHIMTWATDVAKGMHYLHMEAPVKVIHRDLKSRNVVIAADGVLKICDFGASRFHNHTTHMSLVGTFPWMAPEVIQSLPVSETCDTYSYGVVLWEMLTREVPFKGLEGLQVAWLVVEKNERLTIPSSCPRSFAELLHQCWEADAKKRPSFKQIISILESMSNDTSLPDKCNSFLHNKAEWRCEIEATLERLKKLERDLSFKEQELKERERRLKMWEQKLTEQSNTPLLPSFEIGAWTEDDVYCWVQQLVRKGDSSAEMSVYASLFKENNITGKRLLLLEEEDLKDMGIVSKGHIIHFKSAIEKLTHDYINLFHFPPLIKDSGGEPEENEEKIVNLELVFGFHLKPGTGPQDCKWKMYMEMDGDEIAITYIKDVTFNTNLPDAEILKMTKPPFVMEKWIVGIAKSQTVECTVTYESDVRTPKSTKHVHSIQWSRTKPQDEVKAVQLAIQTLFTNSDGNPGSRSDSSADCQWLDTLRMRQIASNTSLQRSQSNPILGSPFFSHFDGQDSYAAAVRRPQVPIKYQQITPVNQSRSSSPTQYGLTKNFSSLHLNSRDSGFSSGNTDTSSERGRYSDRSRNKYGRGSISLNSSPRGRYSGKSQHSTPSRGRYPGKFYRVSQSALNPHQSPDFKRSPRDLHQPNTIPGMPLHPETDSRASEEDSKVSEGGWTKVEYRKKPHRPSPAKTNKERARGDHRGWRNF

As for `Nc1ccccc1Nc1ccc2c(c1)CCc1ccccc1C2=O`, the Activity amounted to 91% in experiment [1]; 99% in experiment [2]; 50% in experiment [3]; 85% in experiment [4]; 82% in [5]; 64% in experiment [6]. Besides, the Activity in experiment [7] is 83%; in experiment [8], 92%; in [9], 85%; in [10], 94%.

As for `O=C1c2ccc(Nc3ccc(F)cc3F)cc2CCc2ccc(OC[C@H](O)CO)cc21` [Skepinone-L], the Activity was found to be 100% in experiment [1]; 100% in experiment [2]; 37% in experiment [3]; 98% in [4]; 90% in experiment [5]; 67% in experiment [6]. Besides, the Activity in experiment [7] came to 94%; in experiment [8], 97%; in experiment [9], 82%; in experiment [10], 80%.
